Test results as given in article PMC8589628, “Characterization and Antimicrobial Studies of Iturin-Like and Bogorol-Like Lipopeptides From Brevibacillus spp. Strains GI9 and SKDU10” (Frontiers in Microbiology, 2021).
Read-outs that look alike come from different tables or passages of the source. Peptide text beside a SMILES is read from it. * marks the point of attachment. X1 = CC(C)CCCCCCCCCCCCC(=O)*

Experiments:
[1] = Effect of temperature and pH on activity (well-diffusion assay); format: physicochemical
Procedure: (§1) Sensitivities of purified antimicrobial compounds to temperature, pH, and hydrolytic enzymes were confirmed by performing well-diffusion assay. pH stability was determined by adjusting the pH of aliquots of purified antimicrobial compounds from 2.0 to 12.0 (using 10 mM HCl or NaOH) and incubating at room temperature for 4 h. The residual activity was measured after neutralizing the sample to pH 7.0. To determine temperature susceptibility, antimicrobial compounds were incubated at different temperatures ranging from 37 to 100°C for 1 h and 121°C for 15 min, and then residual antimicrobial activity was determined after cooling the samples to room temperature. Similarly, proteolytic enzymes such as trypsin and proteinase K were used at three different concentrations (0.1, 1.0, and 5.0 mg/ml) to ensure their effect on the activity of antimicrobial compounds. The enzyme solutions were prepared in 50 mM phosphate buffer (pH 7.0). All reactions were performed at 37°C for 6 h followed by deactivation of the enzyme by heating the solution in boiling water for 5 min before performing the activity assay.

V. cholerae MTCC 3904 [2] = assay: TEM of treated cells; format: cell-based; conditions: V. cholerae MTCC 3904, 1X MIC, 30 min, 37°C
Procedure: (§2) Effect of antimicrobial compounds on cell membrane of test organisms was determined by transmission electron microscopy (TEM). Test strains, S. aureus MTCC 1430, V. cholerae MTCC 3904, and C. albicans MTCC 183 were cultured to mid-log phase, washed, and re-suspended in 1X PBS (OD 600 nm 0.2). The cell suspensions were incubated (37°C) with 1X MIC of purified antimicrobial compounds for 30 min. Cells after treatment were centrifuged, washed twice with PBS. For TEM, cells of S. aureus MTCC 1430 and V. cholerae MTCC 3904 were subjected to negative stain with 0.1% (w/v) sodium phosphotungstate (PTA, Sigma, United States) in water for 1 min, on a carbon-coated copper grid with 300 mesh (Polyscience, United States) and observed under transmission electron microscope (JEOL JEM 2100, United States) ([Raje et al., 2006]). For SEM, C. albicans MTCC 183 cells were immobilized on poly L-lysine glazed glass slides and incubated at 4°C for 2 h. Cells were fixed using Karnovsky’s fixative and serially dehydrated with gradient of ethanol, freeze dried, and platinum coated. ZEISS EV040 (United States) scanning electron microscope was employed to photograph the cells ([Raje et al., 2006]). Spores of A. brassicicola MTCC 2102 were treated with 2X MIC of lipopeptides for 2 h and observed under phase-contrast microscope (Nickon H600L, Japan). […]

B. subtilis MTCC 121 = format: cell-based, Bacillus subtilis
Procedure: (§3) The antimicrobial activity of HPLC purified compounds was determined against various test strains including S. aureus MTCC 1430, Vibrio cholera MTCC 3904, Bacillus subtilis MTCC 121, Listeria monocytogenes MTCC 839, C. albicans MTCC 183, C. albicans MTCC 1637, C. albicans MTCC 227, C. tropicalis MTCC 184, C. glabrata MTCC 3019, and C. inconspicua MTCC 1074. Antimicrobial activity was also tested against clinical Candida strains and phytopathogenic fungi viz. Fusarium moniliforme MTCC 158, Alternaria brassicicola MTCC 2102 and Colletotrichum acutatum MTCC 1037. Bacterial and Candida test strains were grown in NB and yeast malt broth (YMB), respectively. Fungal test strains were grown in potato dextrose broth (PDB). Minimum inhibitory concentrations (MICs) of purified compounds were evaluated against test organisms by using a microtiter plate dilution assay. Mid-log-phase test strains (5 × 10^5 CFU/ml) were incubated in a 96-well plate with different concentrations of the lipopeptides for 24–48 h at 37°C (final volume of 200 μl). OD was measured at 600 nm after 24 and 48 h for bacteria and yeast, respectively, using an ELISA microplate reader (Thermo Scientific, United States). MIC against phytopathogenic fungi was determined using the 96-well microtiter plate method ([Sharma et al., 2020]).

V. cholerae MTCC 3904 [3] = assay: Time kill assay; format: cell-based; conditions: in PBS, CFU count
Procedure: Killing kinetics of purified compounds was performed using cells of S. aureus MTCC 1430, V. cholerae MTCC 3904, and C. albicans MTCC 183. Test strains were grown to obtain OD between 0.2 and 0.3 (OD 600 nm), centrifuged, and washed thrice with sterile PBS. Pellets were suspended in PBS and treated with different concentrations of active compounds. Cells after treatment were washed, resuspended, and serially diluted cell suspensions were plated on NA plates. After overnight incubation at 37°C, CFU were recorded ([Singh et al., 2021]).

[4] = tested on: Spores of A. brassicicola MTCC 2102; assay: Phase-contrast microscopy of treated spores; format: cell-based, Alternaria brassicicola; conditions: A. brassicicola MTCC 2102 spores, 2X MIC, 2 h
Procedure: as §2

V. cholerae MTCC 3904 [5] = format: cell-based, Vibrio cholera
Procedure: as §3

Trypsin = assay: Effect of hydrolytic enzymes on activity (well-diffusion assay); format: in vitro ADME; conditions: for Tolerance to trypsin treatment: 37°C, 6 h; for Residual activity: Trypsin, 6h/ 37 °C, 50 mM phosphate buffer (pH 7.0), enzyme 0.1, 1.0 and 5.0 mg/ml used, well-diffusion assay
Procedure: as §1

Proteinase K = Proteinase K (Parengyodontium album, UniProt P06873); assay: as above; format: in vitro ADME; conditions: for Tolerance to proteinase K treatment: 37°C, 6 h; for Residual activity: Proteinase K, 6h/ 37 °C, 50 mM phosphate buffer (pH 7.0), enzyme 0.1, 1.0 and 5.0 mg/ml used, well-diffusion assay
Proteinase K, sequence (P06873 106-384): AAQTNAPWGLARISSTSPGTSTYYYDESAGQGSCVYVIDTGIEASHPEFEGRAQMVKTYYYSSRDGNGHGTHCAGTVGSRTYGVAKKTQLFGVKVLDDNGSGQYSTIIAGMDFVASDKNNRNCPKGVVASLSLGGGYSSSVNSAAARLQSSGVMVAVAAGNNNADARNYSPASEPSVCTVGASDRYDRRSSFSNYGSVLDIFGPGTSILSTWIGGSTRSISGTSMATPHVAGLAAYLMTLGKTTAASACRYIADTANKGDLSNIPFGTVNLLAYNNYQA
Procedure: as §1

Chymotrypsin = assay: as above; format: in vitro ADME; conditions: 6h/ 37 °C
Procedure: as §1

Lipase = assay: as above; format: in vitro ADME; conditions: 6h/ 37 °C
S. aureus MTCC 1430 = assay: TEM of treated cells; format: cell-based, Staphylococcus aureus; conditions: S. aureus MTCC 1430, 1X MIC, 30 min, 37°C
Procedure: as §2

[6] = Temperature 37 °C, 1h (pH 7.0), well-diffusion assay
[7] = Temperature 60 °C, 1h (pH 7.0), well-diffusion assay
[8] = Temperature 80 °C, 1h (pH 7.0), well-diffusion assay
[9] = Temperature 100 °C, 1h (pH 7.0), well-diffusion assay
[10] = Temperature 121 °C, 15 min (304 kPa) (pH 7.0), well-diffusion assay
[11] = pH 2.0, 4h/ 25 °C, neutralised to pH 7.0 before well-diffusion assay
[12] = pH 4.0, 4h/ 25 °C, neutralised to pH 7.0 before well-diffusion assay
[13] = pH 6.0, 4h/ 25 °C, neutralised to pH 7.0 before well-diffusion assay
[14] = pH 7.0, 4h/ 25 °C, well-diffusion assay
[15] = pH 8.0, 4h/ 25°C, neutralised to pH 7.0 before well-diffusion assay
[16] = pH 10.0, 4h/ 25 °C, neutralised to pH 7.0 before well-diffusion assay
[17] = pH 12.0, 4h/ 25 °C, neutralised to pH 7.0 before well-diffusion assay

Molecule | Residual activity [1, 6] [%] | Residual activity [1, 7] [%] | Residual activity [1, 8] [%] | Residual activity [1, 9] [%] | Residual activity [1, 10] [%] | Residual activity [1, 11] [%] | Residual activity [1, 12] [%] | Residual activity [1, 13] [%] | Residual activity [1, 14] [%] | Residual activity [1, 15] [%] | Residual activity [1, 16] [%] | Residual activity [1, 17] | Effect on cells (TEM) (V. cholerae MTCC 3904 [2]) | Time to complete reduction in the load (V. cholerae MTCC 3904 [3]; V. cholerae MTCC 3904, 1X MIC) [min] | Time to complete reduction in the load (V. cholerae MTCC 3904 [3]; V. cholerae MTCC 3904, 2X MIC) [min] | Effect on spores (phase-contrast microscopy) [4] | Tolerance to trypsin treatment (Trypsin) | Residual activity (Trypsin) [%] | Tolerance to proteinase K treatment (Proteinase K) | Residual activity (Proteinase K) [%] | further results
CC(C)CCCCCCCCCCCCC(=O)N[C@H](C(=O)NCC(=O)N[C@@H](C)C(=O)N[C@@H](CO)C(=O)N[C@@H](Cc1c[nH]cn1)C(=O)N[C@@H](CCC(N)=O)C(=O)N[C@@H](CCC(N)=O)C(=O)O)[C@@H](C)O [ILL] (X1-TGASHQQ-OH; N-terminus assumed) | 100 | 100 | 100 | 100 | 100 | 43 | 95.5 | 100 | 100 | 100 | 100 | Nil | lysis with accumulation of debris on cell surface, altered morphology, and shrinkage | ≤ 60 | ≤ 60 | structural irregularity | resistant | 94.1 | resistant | 82.3 | MIC value (B. subtilis MTCC 121; MTCC 121, 24 h): 260 to 270 µg/mL; MIC value (V. cholerae MTCC 3904 [5]; MTCC 3904, 24 h): 105 to 115 µg/mL; Residual activity (Chymotrypsin): 91.1%; Residual activity (Lipase): 100%; Effect on cells (TEM) (S. aureus MTCC 1430): lysis with accumulation of debris on cell surface, altered morphology, and shrinkage
Dhb-Tyr-Orn-Ile-Val-Val-Lys-Val-Leu-Asp-Val-Glu [BLL, bogorol like lipopeptide purified from Brevibacillus sp. strain SKDU10; 12 amino acids and C17 hydroxy fatty acid side chain] | 100 | 100 | 100 | 100 | 100 | 52 | 100 | 100 | 100 | 100 | 94.3 | Nil | irregularities in structure with rupturing of cell wall and lysis | ≤ 30 | ≤ 30 | structural irregularity | resistant | 91.6 | resistant | 77.7 | Thermostability (activity after exposure to 121°C for 15 min, autoclaving) [1]: thermostable; MIC value (B. subtilis MTCC 121; B. subtilis MTCC 121, NB, 5 × 10^5 CFU/ml, 37°C, OD 600 nm after 24 h, 10–550 μg/ml in 5 μg/ml increments): 225 to 235 µg/mL; MIC value (V. cholerae MTCC 3904 [5]; V. cholerae MTCC 3904, NB, 5 × 10^5 CFU/ml, 37°C, OD 600 nm after 24 h, 10–550 μg/ml in 5 μg/ml increments): 140 to 150 µg/mL; Residual activity (Chymotrypsin): 94.4%; Residual activity (Lipase): 100%; Effect on cells (TEM) (S. aureus MTCC 1430): irregularities in structure with rupturing of cell wall and lysis
